Results as given in patent US20260034121A1, “COMPOSITIONS AND METHODS FOR ALPHA-SYNUCLEIN FIBRIL GROWTH INHIBITION” (Washington University, priority 2024, published 2026).

Target: T1, aSyn fibril growth (in vitro aSyn fibrils) (Homo sapiens, UniProt P37840)
T1 construct: made in house; host or cells: E. coli BL21-CodonPlus (DE3)-RIL, pRK172 plasmid
Assay: FlAsH fluorescence fibril growth assay with in vitro assembled aSyn fibril seeds
Type: biochemical
Description: Inhibition of fibril growth by small molecule compounds is likely to be mediated primarily by binding interactions with either monomer, fibrils, or both. However, secondary nucleation may occur and contribute to fibril growth under some conditions, and compounds may affect growth through interaction with oligomeric intermediates to inhibit conversion to fibrils. In one proposed mechanism, a compound binds to the end surface of fibrils and interferes with the binding of the new monomer required to extend the seed or fibril (FIG. 1). Since binding will deplete the free concentration of the inhibitor, measured IC50 values will be proportional to the concentration of the binding target (fibril seeds) and proportional to the concentration of monomer, with which the inhibitor competes for binding.
The fibril growth assay was performed similarly to previously published methods. […] Maximum inhibition is calculated as (Intensity100μM−Intensity0μM)/Intensity0μM×100% where Intensity100μM and Intensity0μM is the intensity at 100 μM of compound and intensity with no compound in the presence of fibrils and monomers.

SMILES: CCOC(=O)C1CCN(Cc2cc(OC)c(O)c(OC)c2)CC1 [Compound 1, ethyl 1-[(4-hydroxy-3,5-dimethoxyphenyl)methyl]piperidine-4-carboxylate]
- inhibition at 100 µM (at 100 μM compound versus no compound, read-out: Max Inhibition [%] [mean ± std]): 79%
- IC50 (read-out: IC50 [95% Cl] [μM] [mean ± std], 1 μM fibril seeds, 3 μM C2-aSyn monomer, 3-hour incubation): 18 µM
